Assay results: US20170283408A1, “BENZO-HETEROCYCLIC COMPOUNDS AND THEIR APPLICATIONS” (priority 2014, published 2017)

Tests used:
[1] = In vivo toxic study (body weight); details: 20 mg/kg ip daily; C57BL/6
Procedure: C57BL/6 mice were ip injected daily with 20 mg/kg of ML-A1-B, or ML-A1-C, or 5% DMSO vehicle control, and their body weight were measured on the indicated days.
To investigate toxicity of ML-A1-B and ML-A1-C, mice were injected ip daily with 20 mg/kg of ML-A1-B or ML-A1-C or 5% DMSO vehicle control.

[2] = test system: HLA-DR; assay: HLA-DR level in LPS-primed monocyte model (flow cytometry); assay type: cell-based, human; details: LPS-primed monocytes; FIG. 3
Text: (§1) White blood cells of test subjects including healthy volunteers recruited from the Taiwan Blood Service Foundation (Taipei, Taiwan) and septic patients were obtained with written informed consents. Human monocytes were then isolated in accordance with procedures described previously (Chen I H et al., Cancer Immunol Immunother (2010) 59, 323-334). Briefly, peripheral blood mononuclear cells (PBMCs) were isolated using Ficoll-Paque Plus (GE Healthcare) gradient centrifugation. The monocytes were further purified by conducting CD14 selection using CD14 MACS microbeads (Miltenyi Biotec). The purity of monocytes confirmed using flow cytometry analysis was approximately 90%. Monocytes were incubated with endotoxin LPS (100 ng/ml) for 72 hours. At the indicated time point, the cells were harvested and the PD-L1 and HLA-DR molecules were analyzed using flow cytometry. Murine B16F10 cell lines maintained in Dulbecco's modified Eagle's medium (DMEM), 10% heat-inactivated fetal calf serum, 2 mM L-glutamine, penicillin (100 U/ml), and streptomycin (100 μg/ml) at 37 C in a 5% CO2 humidified atmosphere.
(§2) To analyze the surface phenotype of the monocytes, the cells were incubated for 30 minutes on ice in the dark with the following mAbs diluted in phosphate-buffered saline (PBS) containing 1% BSA: PD-L1-FITC, HLA-DR-PE, CD14-PerCP (BD Biosciences). Monocytes were gated based on their FSC/SSC properties. Fluorescence was detected using FACS Calibur, and data analysis was performed using FCS Express version 3 (De Novo Software).
In this example, an LPS-primed monocyte model was established and then used to evaluate the function of the compound of example 1. Specifically, monocytes isolated from healthy subjects according to procedures described in the “Materials and methods” section were incubated with LPS (100 ng/mL) for 72 hours, then respective levels of PD-L1 and HLA-DR were determined. Results are illustrated in FIG. 2. […]

[3] = test system: B16F10 lung metastases; assay: B16F10 lung metastasis model in NOD/SCID mice; assay type: in vivo; details: 2 mg/kg, day 14, n=5/group
Procedure: NOD/SCID (n=5/group) mice were injected i.v. with 2×10^5 of the B16F10 tumor cells. Two mg/kg of ML-A1-B, ML-A1-C, or with DMSO vehicle control were used. The animals were killed on day 14 and tumor nodules in the lungs were counted. Data are presented as the number of each individual mouse and the mean of each group. Representative photographs of the lung of each group are also shown (left).
(§3) C57BL/6 mice (6 to 8 weeks old) and NOD/SCID mice (6 to 8 weeks old) were purchased from the National Laboratory Animal Center (Taipei, Taiwan). All animal experiments were performed under specific pathogen-free conditions and in accordance with guidelines approved by the Animal Care and Usage Committee of Mackay memorial hospital (Taipei, Taiwan).
To generate lung metastases, mice were injected intravenously with 2×10^5 B16F10 cells, a dose consistently yielding lung metastases in 100% of animals. 2 mg/kg compounds and 5% DMSO vehicle control were given ip daily to test the effect of compounds on tumor metastatsis. The amount of tumor seeding was counted as total numbers of black nodules presented in the lungs under microscopy. […]

[4] = test system: B16F10 lung metastases; assay: B16F10 lung metastasis model in C57BL/6 mice; assay type: in vivo; details: 2 mg/kg ip daily, day 14, n=11/group
Procedure: C57BL/6 (n=11/group) mice were injected i.v. with 2×10^5 of the B16F10 tumor cells. Two mg/kg of ML-A1-B, ML-A1-C, or with DMSO vehicle control were used. The animals were killed on day 14 and tumor nodules in the lungs were counted. Data are presented as the number of each individual mouse and the mean of each group. Representative photographs of the lung of each group are also shown (left).
as §3
To generate lung metastases, mice were injected intravenously with 2×10^5 B16F10 cells, a dose consistently yielding lung metastases in 100% of animals. 2 mg/kg compounds and 5% DMSO vehicle control were given ip daily to test the effect of compounds on tumor metastatsis. The amount of tumor seeding was counted as total numbers of black nodules presented in the lungs under microscopy.
To examine the therapeutic effect of ML-A1-B and ML-A1-C against pre-established B16F10 lung metastases, mice were iv injected with 2×10^5 B16F10 tumor cells and treated with, per mouse, 2 mg/kg of ML-A1-B, ML-A1-C, or with DMSO vehicle control.

[5] = test system: PD-L1; assay: PD-L1 expression on IFN-γ stimulated B16F10 cells (flow cytometry); assay type: cell-based, murine; details: various concentrations, 1 day; FIG. 5
Procedure: as §1, with “IFN-γ stimulated-monocytes were incubated in the presence of either a DMSO vehicle control, ML-A1-B or ML-A1-C for 1 day. Treated cells were harvested and the PD-L1 molecules were analyzed using flow cytometry. Surface molecule expression is presented as the MFI relative to each day that the cells were treated with the DMSO vehicle control medium. Values are presented as the mean±SEM from 3 independent experiments. White” for “White”, “Murine B16F10 cell lines maintained in Dulbecco's modified Eagle's medium (DMEM), 10% heat-inactivated fetal calf serum, 2 mM L-glutamine, penicillin (100 U/ml), and streptomycin (100 μg/ml) at 37 C in a 5% CO2 humidified atmosphere.” left out

[6] = test system: PD-L1; assay: PD-L1 level in LPS-primed monocyte model (flow cytometry); assay type: cell-based, human; details: for expression level of PD-L1 in LPS-primed monocytes, of that of the control: compound at 10 μM, LPS 100 ng/mL, relative to control
Text: as §1, §2
In this example, an LPS-primed monocyte model was established and then used to evaluate the function of the compound of example 1. Specifically, monocytes isolated from healthy subjects according to procedures described in the “Materials and methods” section were incubated with LPS (100 ng/mL) for 72 hours, then respective levels of PD-L1 and HLA-DR were determined. Results are illustrated in FIG. 2.
The effects of the compounds of example 1 were tested in the LPS-primed monocyte model of example 3.1, in which various concentrations of ML-C19-A, ML-C19-B, ML-A1-B, and ML-A1-C were incubated with LPS-primed monocytes of example 3.1; results are illustrated in FIGS. 3 and 4.

[7] = test system: murine B16F10 melanoma cells; assay: MTS cytotoxicity assay, B16F10; assay type: cell-based; details: Mus musculus, B16-F10, B16F10; FIG. 6; read-out: IC50 (MTS assay), B16F10 melanoma cell line
Procedure: (§4) The B16F10 and human PBMCs were incubated in the presence of various concentrations of ML-A1-B and ML-A1-C compounds for 1 day. The cell cytotoxicity was monitored through MTS assay. Optical density of DMSO control groups was taken as 100% of cell viability. Values are presented as the mean±SEM from 3 independent experiments.
(§5) 5×10^3 of B16F10 cells were seeded into 96-well plates and treated with the following: DMSO control, various concentrations of naphthalimide derived compounds for 2 day. For the MTS assay (Promega), 40 ul of the MTS reagent was added into each well. Cells were incubated at 37° C. for 4 hr. The absorbance was detected at OD490 nm.
(§6) The cytotoxicity of various concentrations of ML-A1-B and ML-A1-C against murine B16F10 melanoma cells and human PBMCs were examined by MTS assay. […] Therapeutic index by MTS assay is about 5.62.

[8] = test system: human PBMCs; assay: MTS cytotoxicity assay, human PBMCs; assay type: cell-based
Procedure: as §4, §5, §6

[9] = test system: B16F10 lung metastases; assay: Compounds and anti-PD-1 antibody combination therapy in B16F10 lung metastasis model (survival); assay type: in vivo, C57BL/6 mice; details: compound 2 mg/kg daily combined with anti-PD-1 (J43) 5 mg/kg every 3-4 days; C57BL/6
Procedure: C57BL/6 mice were injected iv with 2×10^5 B16F10 cells on Day0. On Day1, mice were injected ip with either control hamster Ig (CTRL IgG) or hamster anti-mouse-PD-1 (J43) at 5 mg/kg every 3-4 days. For combination therapies, mice were daily injected with 2 mg/kg of ML-C19-A or ML-A1-C combined with anti-mouse PD-1 (5 mg/kg) every 3-4 days. Long-term of survival of treated mice in each of the experimental groups were observed.
To examine whether combination of ML-C19-A or ML-A1-C with anti-PD-1 antibody would prolong mice survival in B16F10 lung metastasis model, mice were injected ip with compounds and anti-PD-1 antibody.

SMILES	body weight of the mice [1]	visible sign of toxicity [1]	levels of HLA-DR expression [2]	lung metastasis in immune deficient NOD/SCID mice [3]	number of lung metastases (lung nodules), mean [4]	number of lung metastases (lung nodules), range [4]	PD-L1 on IFN-γ stimulated murine B16F10 melanoma cell line [5]	expression level of PD-L1 in LPS-primed monocytes, of that of the control [6]	IC50 [7] [µM]	IC50 ([8]; Homo sapiens, PBMC, human PBMCs, FIG. 6) [µM]	Therapeutic index by MTS assay ([8]; ratio of PBMC IC50 to B16F10 IC50)	overall survival [9]	reduction in PD-L1 level as compared with that of the control ([6]; LPS-primed monocytes, FIG. 3) [%]
CN(C)CCN1C(=O)c2cccc3c(-c4nc5ccccc5o4)ccc(c23)C1=O [ML-A1-B, 6-(Benzo[d]oxazol-2-yl)-2-(2-(dimethylamino)ethyl)-1H-benzo[de]isoquinoline-1,3(2H)-dione]	do not significantly reduce the body weight	no visible sign of toxicity	capable of altering the levels of HLA-DR expression	failed to inhibit lung metastasis	41	2-90	significantly suppresses PD-L1	~9.4%					
CN(C)CCN1C(=O)c2cccc3c(-c4nc5ccccc5s4)ccc(c23)C1=O [ML-A1-C, 6-(Benzo[d]thiazol-2-yl)-2-(2-(dimethylamino)ethyl)-1H-benzo[de]isoquinoline-1,3(2H)-dione]	do not significantly reduce the body weight	no visible sign of toxicity	capable of altering the levels of HLA-DR expression	failed to inhibit lung metastasis	30	3-59	significantly suppresses PD-L1	~50.8%	7.8 ± 0.05	48.3 ± 0.14	about 5.62	an increase in overall survival	
NS(=O)(=O)c1ccc(N2C(=O)c3cccc4cccc(c34)C2=O)cc1 [ML-C19-A]								about 37.5%				an increase in overall survival	
NS(=O)(=O)c1ccc(N2C(=O)c3cccc4c(Br)ccc(c34)C2=O)cc1 [ML-C19-B, 4-(6-bromo-1,3-dioxo-1H-benzo[de]isoquinolin-2(3H)-yl)benzene-sulfonamide]			capable of altering the levels of HLA-DR expression										20
